From PMC6886798, “Expression of myeloid Src-family kinases is associated with poor prognosis in AML and influences Flt3-ITD kinase inhibitor acquired resistance” (PLoS ONE, 2019)
Read-outs that look alike come from different tables or passages of the source.

How the values were obtained:
[1] = molecular target: T1, Fgr T338F (Homo sapiens, UniProt P09769, T334F); assay: Z'-LYTE in vitro kinase assay; type: biochemical
T1 construct: Recombinant near-full-length kinases, consisting of the SH2, SH3 and kinase domains plus the negative regulatory tail; made in house; host or cells: E. coli BL21Star (DE3), co-expressed with Csk and PTP1B
Description: Assays were performed in quadruplicate in 384-well low volume, non-binding, black polystyrene microplates (Corning) according to the manufacturer’s instructions. Briefly, this assay measures phosphorylation of the Tyr2 peptide substrate which is tagged with coumarin and fluorescein on its N- and C-termini, respectively, to form a FRET pair. After the kinase reaction, a development step involves site-specific proteolytic cleavage of the unphosphorylated but not the phosphorylated peptide. […] Kinase reactions were run in 50 mM HEPES, pH 7.5, 10 mM MgCl2, 1 mM EGTA, and 0.01% BRIJ-35 (buffer supplied by the manufacturer). […] Following incubation for 1 h at ambient temperature, reactions were quenched by addition of the development protease, and coumarin and fluorescein fluorescence were measured 1 h later on a Molecular Devices SpectraMax M5 plate reader. […] For experiments with inhibitors, compounds were preincubated with kinase for 30 min prior to initiation of the reaction by the addition of ATP.

[2] = molecular target: T2, Lyn T338L (Homo sapiens, UniProt P07948, T319L); assay: Z'-LYTE in vitro kinase assay; type: biochemical; conditions: read-out: A-419259 IC50, Fig 5B, ATP at Km, mean ± SE, three independent determinations
T2 construct: Recombinant near-full-length kinases, consisting of the SH2, SH3 and kinase domains plus the negative regulatory tail; made in house; host or cells: E. coli BL21Star (DE3), co-expressed with Csk and PTP1B

[3] = molecular target: T3, Lyn T338F (Homo sapiens, UniProt P07948, T319F); assay: Z'-LYTE in vitro kinase assay; type: biochemical; conditions: read-out: A-419259 IC50, Fig 5B, ATP at Km, mean ± SE, three independent determinations
T3 construct: Recombinant near-full-length kinases, consisting of the SH2, SH3 and kinase domains plus the negative regulatory tail; made in house; host or cells: E. coli BL21Star (DE3), co-expressed with Csk and PTP1B

[4] = system: parental TF-1 cells (GM-CSF); assay: CellTiter-Blue cell viability; type: cell-based, human; conditions: at 3.0 μM; 72 hours; in the presence of GM-CSF
Description: TF-1 and MV4-11 cells were obtained from the American Type Culture Collection (ATCC) and cultured in RPMI 1640 medium supplemented with 10% fetal bovine serum (FBS), 100 units/ml of penicillin, 100 μg/ml of streptomycin sulfate, and 0.25 μg/ml of amphotericin B (Antibiotic-Antimycotic; Gibco/ThermoFisher). Parental TF-1 cells also require recombinant human GM-CSF (1 ng/mL; ThermoFisher). MOLM13 and MOLM14 cells were obtained from Leibniz Institute Deutsche Sammlung von Mikroorganismen (DSMZ) and grown in RPMI 1640 medium containing 20% FBS and Antibiotic-Antimycotic. Human 293T cells were obtained from ATCC and cultured in Dulbecco's modified Eagle's medium (DMEM) containing 10% FBS and Antibiotic-Antimycotic.
Cells were seeded at 10^5 per mL in the presence or absence of inhibitors with DMSO as carrier solvent (0.1% final). Cell viability was assessed using the CellTiter-Blue reagent according to the manufacturer’s instructions (Promega). Fluorescence intensity, which correlates directly with viable cell number, was measured using a SpectraMax M5 microplate reader. Each experiment included three technical replicates per condition, and each experiment was repeated at least three times.

[5] = system: MOLM13 cells (parent); assay: CellTiter-Blue cell viability; type: cell-based, human
Description: (§1) Gibco/ThermoFisher). Parental TF-1 cells also require recombinant human GM-CSF (1 ng/mL; ThermoFisher). MOLM13 and MOLM14 cells were obtained from Leibniz Institute Deutsche Sammlung von Mikroorganismen (DSMZ) and grown in RPMI 1640 medium containing 20% FBS and Antibiotic-Antimycotic. […] Cell viability was assessed using the CellTiter-Blue reagent according to the manufacturer’s instructions (Promega). Fluorescence intensity, which correlates directly with viable cell number, was measured using a SpectraMax M5 microplate reader. Each experiment included three technical replicates per condition, and each experiment was repeated at least three times.

[6] = system: MOLM14 cells (parent); assay: CellTiter-Blue cell viability; type: cell-based, human
Description: as §1

[7] = system: MV4-11 cells (parent); assay: CellTiter-Blue cell viability; type: cell-based, human
Description: as §1

[8] = molecular target: T4, AAK1 (Homo sapiens, UniProt Q2M2I8); assay: KINOMEscan; type: binding; conditions: 1.0 µM
T4 construct: purchased Eurofins/DiscoverX KINOMEscan scanMAX
Description: (§2) Kinase retention to the immobilized ligand is then measured using quantitative real-time PCR for each kinase-specific DNA barcode.

[9] = molecular target: T5, FES (Homo sapiens, UniProt P07332); assay: KINOMEscan; type: binding; conditions: 1.0 µM
T5 construct: purchased Eurofins/DiscoverX KINOMEscan scanMAX
Description: as §2

[10] = molecular target: T6, HPK1 (Homo sapiens, UniProt Q92918); assay: KINOMEscan; type: binding; conditions: 1.0 µM
T6 construct: purchased Eurofins/DiscoverX KINOMEscan scanMAX
T6 sequence (Q92918 whole entry): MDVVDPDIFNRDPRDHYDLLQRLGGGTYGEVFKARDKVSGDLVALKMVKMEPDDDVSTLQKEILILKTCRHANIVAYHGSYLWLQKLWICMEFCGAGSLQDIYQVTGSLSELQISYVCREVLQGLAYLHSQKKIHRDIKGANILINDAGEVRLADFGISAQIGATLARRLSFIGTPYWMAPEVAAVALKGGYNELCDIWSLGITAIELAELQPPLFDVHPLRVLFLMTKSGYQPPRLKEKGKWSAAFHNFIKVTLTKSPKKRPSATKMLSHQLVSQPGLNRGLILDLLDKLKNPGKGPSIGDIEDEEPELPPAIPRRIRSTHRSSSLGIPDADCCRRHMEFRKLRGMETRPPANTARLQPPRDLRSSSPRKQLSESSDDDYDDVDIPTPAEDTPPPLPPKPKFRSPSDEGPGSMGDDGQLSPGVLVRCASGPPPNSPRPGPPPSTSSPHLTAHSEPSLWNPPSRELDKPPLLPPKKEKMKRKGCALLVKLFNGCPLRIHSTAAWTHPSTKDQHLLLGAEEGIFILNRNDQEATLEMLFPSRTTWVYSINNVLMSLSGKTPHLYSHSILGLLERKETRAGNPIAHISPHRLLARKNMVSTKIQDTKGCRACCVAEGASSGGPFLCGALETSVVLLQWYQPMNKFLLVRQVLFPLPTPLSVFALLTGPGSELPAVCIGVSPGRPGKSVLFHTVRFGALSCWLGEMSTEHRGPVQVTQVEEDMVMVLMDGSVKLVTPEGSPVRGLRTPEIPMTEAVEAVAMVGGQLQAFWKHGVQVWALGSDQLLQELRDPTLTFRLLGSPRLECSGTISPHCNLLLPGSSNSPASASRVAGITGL
Description: as §2

[11] = molecular target: T7, KIT(L576P) (Homo sapiens, UniProt P10721, L576P); assay: KINOMEscan; type: binding; conditions: 1.0 µM
T7 construct: purchased Eurofins/DiscoverX KINOMEscan scanMAX
T7 sequence (P10721 26-976 L576P): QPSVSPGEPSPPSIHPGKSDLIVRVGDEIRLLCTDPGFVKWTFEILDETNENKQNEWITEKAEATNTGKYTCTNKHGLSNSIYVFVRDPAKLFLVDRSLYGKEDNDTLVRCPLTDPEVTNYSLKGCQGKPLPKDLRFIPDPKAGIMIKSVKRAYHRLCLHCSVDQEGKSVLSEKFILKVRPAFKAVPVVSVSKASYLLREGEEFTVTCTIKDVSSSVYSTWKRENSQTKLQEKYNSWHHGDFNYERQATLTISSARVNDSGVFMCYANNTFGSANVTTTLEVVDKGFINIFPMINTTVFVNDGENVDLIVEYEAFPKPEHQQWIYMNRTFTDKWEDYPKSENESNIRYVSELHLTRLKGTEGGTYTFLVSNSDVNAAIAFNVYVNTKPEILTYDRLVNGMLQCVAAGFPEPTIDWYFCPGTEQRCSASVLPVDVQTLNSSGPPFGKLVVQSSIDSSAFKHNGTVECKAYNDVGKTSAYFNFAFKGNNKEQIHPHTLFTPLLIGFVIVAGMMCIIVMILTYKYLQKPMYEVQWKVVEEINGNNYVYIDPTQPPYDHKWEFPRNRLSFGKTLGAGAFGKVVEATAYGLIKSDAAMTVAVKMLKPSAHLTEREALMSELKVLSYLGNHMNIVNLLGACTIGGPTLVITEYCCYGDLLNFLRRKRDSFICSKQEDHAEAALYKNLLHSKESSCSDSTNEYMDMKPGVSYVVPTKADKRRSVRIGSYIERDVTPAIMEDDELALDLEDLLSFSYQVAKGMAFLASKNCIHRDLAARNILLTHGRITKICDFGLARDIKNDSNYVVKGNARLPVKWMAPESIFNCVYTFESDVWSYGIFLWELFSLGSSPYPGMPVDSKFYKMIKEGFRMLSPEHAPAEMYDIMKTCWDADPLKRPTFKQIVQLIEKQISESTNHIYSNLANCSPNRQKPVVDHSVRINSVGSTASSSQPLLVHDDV
Description: as §2

[12] = molecular target: T8, LATS2 (Homo sapiens, UniProt Q9NRM7); assay: KINOMEscan; type: binding; conditions: 1.0 µM
T8 construct: purchased Eurofins/DiscoverX KINOMEscan scanMAX
Description: as §2

[13] = molecular target: T9, MLK2 (Homo sapiens, UniProt Q02779); assay: KINOMEscan; type: binding; conditions: 1.0 µM
T9 construct: purchased Eurofins/DiscoverX KINOMEscan scanMAX
Description: as §2

[14] = molecular target: T10, MST1R (Homo sapiens, UniProt Q04912); assay: KINOMEscan; type: binding; conditions: 1.0 µM
T10 construct: purchased Eurofins/DiscoverX KINOMEscan scanMAX
Description: as §2

[15] = molecular target: T11, MST2 (Homo sapiens, UniProt Q13188); assay: KINOMEscan; type: binding; conditions: 1.0 µM
T11 construct: purchased Eurofins/DiscoverX KINOMEscan scanMAX
T11 sequence (Q13188 whole entry): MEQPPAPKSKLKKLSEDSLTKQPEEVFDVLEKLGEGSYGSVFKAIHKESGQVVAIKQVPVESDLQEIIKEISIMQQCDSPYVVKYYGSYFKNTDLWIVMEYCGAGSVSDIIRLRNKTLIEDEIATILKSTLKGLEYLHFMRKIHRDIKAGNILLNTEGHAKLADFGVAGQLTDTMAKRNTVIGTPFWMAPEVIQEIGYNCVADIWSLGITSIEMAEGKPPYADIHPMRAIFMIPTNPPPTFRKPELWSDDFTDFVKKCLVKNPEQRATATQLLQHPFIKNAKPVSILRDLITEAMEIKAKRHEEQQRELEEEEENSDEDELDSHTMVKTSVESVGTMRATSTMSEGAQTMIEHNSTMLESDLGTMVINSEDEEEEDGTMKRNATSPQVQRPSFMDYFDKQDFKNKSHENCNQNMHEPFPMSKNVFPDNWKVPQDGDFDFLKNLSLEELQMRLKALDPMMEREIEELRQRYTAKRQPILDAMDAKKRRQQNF
Description: as §2

[16] = molecular target: T12, NEK4 (Homo sapiens, UniProt P51957); assay: KINOMEscan; type: binding; conditions: 1.0 µM
T12 construct: purchased Eurofins/DiscoverX KINOMEscan scanMAX
T12 sequence (P51957 whole entry): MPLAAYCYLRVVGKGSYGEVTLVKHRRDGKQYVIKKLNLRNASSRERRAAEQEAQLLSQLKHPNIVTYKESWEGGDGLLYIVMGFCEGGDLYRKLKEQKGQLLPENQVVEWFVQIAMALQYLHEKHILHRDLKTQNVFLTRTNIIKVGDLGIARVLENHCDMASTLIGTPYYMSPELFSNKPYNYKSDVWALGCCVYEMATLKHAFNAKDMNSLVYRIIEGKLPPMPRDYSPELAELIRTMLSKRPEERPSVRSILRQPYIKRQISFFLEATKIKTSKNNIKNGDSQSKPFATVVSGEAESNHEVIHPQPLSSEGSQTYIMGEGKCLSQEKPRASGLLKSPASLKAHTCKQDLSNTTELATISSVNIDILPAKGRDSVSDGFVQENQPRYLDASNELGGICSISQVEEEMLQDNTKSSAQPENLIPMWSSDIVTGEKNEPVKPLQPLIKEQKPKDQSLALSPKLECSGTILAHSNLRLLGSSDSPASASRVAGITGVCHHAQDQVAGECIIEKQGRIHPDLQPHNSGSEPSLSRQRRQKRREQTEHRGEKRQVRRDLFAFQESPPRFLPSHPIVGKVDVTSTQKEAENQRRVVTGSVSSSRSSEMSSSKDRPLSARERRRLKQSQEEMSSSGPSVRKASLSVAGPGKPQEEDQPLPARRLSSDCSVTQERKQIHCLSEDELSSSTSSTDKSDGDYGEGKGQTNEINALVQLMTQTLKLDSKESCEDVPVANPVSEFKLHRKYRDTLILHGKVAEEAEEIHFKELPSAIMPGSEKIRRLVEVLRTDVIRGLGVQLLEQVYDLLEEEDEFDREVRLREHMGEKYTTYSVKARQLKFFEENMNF
Description: as §2

[17] = molecular target: T13, PIK3CA(Q546K) (Homo sapiens, UniProt P42336, Q546K); assay: KINOMEscan; type: binding; conditions: 1.0 µM
T13 construct: purchased Eurofins/DiscoverX KINOMEscan scanMAX
Description: as §2

[18] = molecular target: T14, PRKCH (Homo sapiens, UniProt P24723); assay: KINOMEscan; type: binding; conditions: 1.0 µM
T14 construct: purchased Eurofins/DiscoverX KINOMEscan scanMAX
Description: as §2

[19] = molecular target: T15, PRKX (Homo sapiens, UniProt P51817); assay: KINOMEscan; type: binding; conditions: 1.0 µM
T15 construct: purchased Eurofins/DiscoverX KINOMEscan scanMAX
T15 sequence (P51817 whole entry): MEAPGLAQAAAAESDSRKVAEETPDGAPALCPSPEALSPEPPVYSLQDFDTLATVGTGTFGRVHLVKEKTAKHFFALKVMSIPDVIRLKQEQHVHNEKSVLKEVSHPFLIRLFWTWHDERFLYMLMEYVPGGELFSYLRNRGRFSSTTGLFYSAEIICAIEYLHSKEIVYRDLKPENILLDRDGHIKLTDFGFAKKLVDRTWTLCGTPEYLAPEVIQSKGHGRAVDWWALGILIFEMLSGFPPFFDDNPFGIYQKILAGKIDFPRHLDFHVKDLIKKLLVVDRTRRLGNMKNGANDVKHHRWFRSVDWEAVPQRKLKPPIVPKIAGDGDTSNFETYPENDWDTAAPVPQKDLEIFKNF
Description: as §2

[20] = molecular target: T16, RSK4(Kin.Dom.1-N-terminal) (Homo sapiens, UniProt Q9UK32); assay: KINOMEscan; type: binding; conditions: 1.0 µM
T16 construct: RSK4(Kin.Dom.1-N-terminal); purchased Eurofins/DiscoverX KINOMEscan scanMAX
Description: as §2

[21] = molecular target: T17, SLK (Homo sapiens, UniProt Q9H2G2); assay: KINOMEscan; type: binding; conditions: 1.0 µM
T17 construct: purchased Eurofins/DiscoverX KINOMEscan scanMAX
Description: as §2

[22] = molecular target: T18, WNK1 (Homo sapiens, UniProt Q9H4A3); assay: KINOMEscan; type: binding; conditions: 1.0 µM
T18 construct: DNA tag (qPCR barcode); purchased Eurofins/DiscoverX KINOMEscan scanMAX
Description: as §2

[23] = molecular target: CDC2L5 (Homo sapiens, UniProt Q14004); conditions: 1.0 µM
Sequence of CDC2L5 (Q14004 whole entry): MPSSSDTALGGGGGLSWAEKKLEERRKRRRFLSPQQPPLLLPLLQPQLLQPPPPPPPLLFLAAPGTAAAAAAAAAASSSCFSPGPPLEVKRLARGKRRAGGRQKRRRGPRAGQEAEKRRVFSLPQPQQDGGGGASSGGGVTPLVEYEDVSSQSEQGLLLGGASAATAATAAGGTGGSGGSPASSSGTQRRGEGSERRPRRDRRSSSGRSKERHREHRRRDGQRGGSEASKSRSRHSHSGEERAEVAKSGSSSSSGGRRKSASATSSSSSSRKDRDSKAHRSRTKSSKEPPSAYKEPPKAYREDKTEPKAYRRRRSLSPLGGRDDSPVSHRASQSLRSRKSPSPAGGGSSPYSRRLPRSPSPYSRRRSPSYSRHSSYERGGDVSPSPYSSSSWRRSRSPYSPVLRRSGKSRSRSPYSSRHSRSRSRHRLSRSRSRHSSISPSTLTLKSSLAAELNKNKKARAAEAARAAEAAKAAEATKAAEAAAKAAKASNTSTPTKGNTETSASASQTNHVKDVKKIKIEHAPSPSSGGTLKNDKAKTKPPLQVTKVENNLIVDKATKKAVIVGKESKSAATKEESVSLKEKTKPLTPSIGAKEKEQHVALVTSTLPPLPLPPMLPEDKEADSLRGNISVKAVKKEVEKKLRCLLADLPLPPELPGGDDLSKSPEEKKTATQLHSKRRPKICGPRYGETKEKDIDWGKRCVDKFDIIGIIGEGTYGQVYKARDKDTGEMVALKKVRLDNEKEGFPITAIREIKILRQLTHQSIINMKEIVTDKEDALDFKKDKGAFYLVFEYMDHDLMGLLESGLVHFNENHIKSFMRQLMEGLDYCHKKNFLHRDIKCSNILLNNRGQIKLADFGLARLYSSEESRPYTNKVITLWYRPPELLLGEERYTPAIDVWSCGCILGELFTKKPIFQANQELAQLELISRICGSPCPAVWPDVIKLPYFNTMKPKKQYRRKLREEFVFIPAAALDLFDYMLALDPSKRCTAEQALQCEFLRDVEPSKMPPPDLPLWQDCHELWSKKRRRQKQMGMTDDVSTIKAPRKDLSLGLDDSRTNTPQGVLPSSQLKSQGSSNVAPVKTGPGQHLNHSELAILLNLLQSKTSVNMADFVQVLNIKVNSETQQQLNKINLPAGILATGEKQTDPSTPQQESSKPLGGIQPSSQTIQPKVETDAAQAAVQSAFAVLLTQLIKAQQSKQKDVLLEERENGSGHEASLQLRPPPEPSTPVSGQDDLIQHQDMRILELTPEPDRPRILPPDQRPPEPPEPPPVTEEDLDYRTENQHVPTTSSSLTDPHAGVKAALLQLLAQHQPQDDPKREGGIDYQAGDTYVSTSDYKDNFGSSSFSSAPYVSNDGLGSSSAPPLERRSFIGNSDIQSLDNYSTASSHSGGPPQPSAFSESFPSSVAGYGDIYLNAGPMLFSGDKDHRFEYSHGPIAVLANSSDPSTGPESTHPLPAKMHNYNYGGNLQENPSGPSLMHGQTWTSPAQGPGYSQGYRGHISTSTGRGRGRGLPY
Description: as §2

[24] = molecular target: PKNB(M.tuberculosis) (Mycobacterium tuberculosis, UniProt P9WI81); conditions: 1.0 µM
Description: as §2

[25] = molecular target: T19, LCK (Homo sapiens, UniProt P06239); assay: KINOMEscan; type: binding; conditions: 1.0 µM
T19 construct: purchased Eurofins/DiscoverX KINOMEscan scanMAX

[26] = molecular target: T20, PRP4 (Homo sapiens, UniProt Q13523); assay: KINOMEscan; type: binding; conditions: 1.0 µM
T20 construct: purchased Eurofins/DiscoverX KINOMEscan scanMAX

[27] = system: chemotherapy-resistant AML patient xenografts; design: method as in PMID 23596204; conditions: mice; cited from earlier work
[28] = read-out: A-419259 Sensitivity (IC50, nM) Initial, mean ± SE (n = 3)
[29] = read-out: A-419259 Sensitivity (IC50, nM) Post-holiday, after 4 weeks passage in the absence of inhibitor, mean ± SE (n = 3)

Question: With CN1CCN(C2CCC(n3cc(-c4ccc(Oc5ccccc5)cc4)c4c(N)ncnc43)CC2)CC1 (centres unmarked) [A-419259] as the molecule, how does the “resistance to A-419259” value ([1]; Fgr gatekeeper phenylalanine substitution, vs wild-type) read?
Answer: ~5 fold

Question: What about the IC50 ([1]; read-out: A-419259 IC50, Fig 5B, Fgr T338F, ATP at Km, mean ± SE, three independent determinations) of the same molecule?
Answer: 282.9 ± 1.1 nM

Question: And the IC50 [2]?
Answer: 129.7 ± 1.1 nM

Question: What about the IC50 [3] of the same molecule?
Answer: 242 ± 1.2 nM

Question: What about the growth inhibition [4] of the same molecule?
Answer: less than 20%

Question: What about the IC50 [5, 28] of the same molecule?
Answer: 40.3 ± 9.9 nM

Question: What about the IC50 [5, 29] of the same molecule?
Answer: 38.4 ± 0.9 nM

Question: And the IC50 [6, 28]?
Answer: 14.3 ± 1.5 nM

Question: What about the IC50 [6, 29] of the same molecule?
Answer: 26.4 ± 7.7 nM

Question: What about the IC50 ([7]; Fig 3A, 72 hours, read-out: IC50 (cell viability)) of the same molecule?
Answer: 58 nM

Question: What about the IC50 ([7]; read-out: A-419259 Sensitivity (IC50, nM) Initial, MV4-11 Parent, mean ± SE (n = 3)) of the same molecule?
Answer: 28.3 ± 3.5 nM

Question: What about the IC50 ([7]; read-out: A-419259 Sensitivity (IC50, nM) Post-holiday, MV4-11 Parent, after 4 weeks passage in the absence of inhibitor, mean ± SE (n = 3)) of the same molecule?
Answer: 27.5 ± 4.3 nM

Question: What about the “% Control” value [8] of the same molecule?
Answer: 100%

Question: And the “% Control” value [9]?
Answer: 100%

Question: What about the “% Control” value [10] of the same molecule?
Answer: 44%

Question: What about the “% Control” value [11] of the same molecule?
Answer: 0%

Question: What about the “% Control” value [12] of the same molecule?
Answer: 18%

Question: And the “% Control” value [13]?
Answer: 29%

Question: What about the “% Control” value [14] of the same molecule?
Answer: 96%

Question: What about the “% Control” value [15] of the same molecule?
Answer: 82%

Question: And the “% Control” value [16]?
Answer: 100%

Question: What about the “% Control” value [17] of the same molecule?
Answer: 100%

Question: What about the “% Control” value [18] of the same molecule?
Answer: 87%

Question: What about the “% Control” value [19] of the same molecule?
Answer: 100%

Question: What about the “% Control” value [20] of the same molecule?
Answer: 68%

Question: What about the “% Control” value [21] of the same molecule?
Answer: 100%

Question: And the “% Control” value [22]?
Answer: 73%

Question: What about the “% Control” value [23] of the same molecule?
Answer: 77%

Question: What about the “% Control” value [24] of the same molecule?
Answer: 82%

Question: What about the “% Control” value [25] of the same molecule?
Answer: 2.3%

Question: And the “% Control” value [26]?
Answer: 98%

Question: And the “effect on chemotherapy-resistant AML patient xenografts” value [27]?
Answer: completely eliminates
